Laboratory results reported in ChEMBL document CHEMBL1151014, “Tetrazole-substituted ureas as inhibitors of acyl-CoA:cholesterol O-acyltransferase (ACAT). A novel preparation of ureas from weakly nucleophilic amines” (Bioorg Med Chem Lett, 1996).
Each block holds one compound with its values, some of them ahead of it.

Tests used:
[1] = molecular target: T1, Sterol O-acyltransferase 1 (Rattus norvegicus, UniProt O70536); assay: Liver ACAT inhibitory activity was determined in vitro using [1-14C]oleolyl-CoA and microsomes isolated from the livers of cholesterol fed rats; design: species or system Microsome
T1 sequence (O70536 whole entry): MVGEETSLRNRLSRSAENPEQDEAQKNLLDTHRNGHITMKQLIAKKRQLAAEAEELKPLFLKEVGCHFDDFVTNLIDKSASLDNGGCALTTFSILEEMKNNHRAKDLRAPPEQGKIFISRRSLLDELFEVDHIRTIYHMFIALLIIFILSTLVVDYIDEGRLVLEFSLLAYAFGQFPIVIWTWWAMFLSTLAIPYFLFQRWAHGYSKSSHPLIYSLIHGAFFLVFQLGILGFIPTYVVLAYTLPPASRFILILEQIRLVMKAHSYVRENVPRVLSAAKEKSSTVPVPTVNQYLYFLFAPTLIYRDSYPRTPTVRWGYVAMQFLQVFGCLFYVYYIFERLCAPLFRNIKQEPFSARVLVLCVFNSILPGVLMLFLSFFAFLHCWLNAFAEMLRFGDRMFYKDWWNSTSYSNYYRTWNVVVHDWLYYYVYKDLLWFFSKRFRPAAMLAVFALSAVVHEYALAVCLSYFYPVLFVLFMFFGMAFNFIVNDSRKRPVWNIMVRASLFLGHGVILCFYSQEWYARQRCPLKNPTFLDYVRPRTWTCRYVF

Rattus norvegicus = assay: Total serum cholesterol level was measured in rats after administering single high-fat, high cholesterol meal; format: functional
[2] = molecular target: T1, Sterol O-acyltransferase 1; assay: Liver Acyl coenzyme A:cholesterol acyltransferase inhibitory activity was determined in vitro using [1-14C]oleolyl-CoA and microsomes isolated from the livers of cholesterol fed rats; design: species or system Microsome
[3] = molecular target: T2, Sterol O-acyltransferase 1 (Mus musculus, UniProt Q61263); assay: Compound was tested for its ability to penetrate the cell wall and inhibit macrophage ACAT in cell culture using murine IC-21 macrophages (MAI); format: functional
T2 sequence (Q61263 whole entry): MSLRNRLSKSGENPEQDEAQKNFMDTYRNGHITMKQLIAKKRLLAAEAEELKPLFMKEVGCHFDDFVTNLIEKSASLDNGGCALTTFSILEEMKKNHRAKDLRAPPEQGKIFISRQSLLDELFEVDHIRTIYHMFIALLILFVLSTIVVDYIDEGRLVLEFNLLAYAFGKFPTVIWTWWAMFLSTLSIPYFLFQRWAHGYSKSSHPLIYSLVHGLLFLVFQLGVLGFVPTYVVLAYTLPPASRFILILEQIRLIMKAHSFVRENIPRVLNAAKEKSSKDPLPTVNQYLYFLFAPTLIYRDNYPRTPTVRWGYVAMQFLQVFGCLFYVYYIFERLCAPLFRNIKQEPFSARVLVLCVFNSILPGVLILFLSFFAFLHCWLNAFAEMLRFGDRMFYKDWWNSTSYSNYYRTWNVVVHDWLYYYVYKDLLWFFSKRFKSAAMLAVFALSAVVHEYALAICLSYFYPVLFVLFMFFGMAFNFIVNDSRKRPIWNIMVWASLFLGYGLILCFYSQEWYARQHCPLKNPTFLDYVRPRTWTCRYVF

Oryctolagus cuniculus [4] = assay: Compound was tested for systemic bioactivity in plasma, drawn four hours post dose from cholesterol -fed rabbit, with rat liver microsomes (ABIO) at a dose of 22 mg/kg; format: functional; settings: 4 h
Oryctolagus cuniculus [5] = assay: Compound was tested for systemic bioactivity in plasma, drawn four hours post dose from cholesterol -fed rabbit, with rat liver microsomes (ABIO) at a dose of 24 mg/kg; format: functional; settings: 4 h
[6] = molecular target: T2, Sterol O-acyltransferase 1; assay: Compound was tested for its ability to penetrate the cell wall and inhibit macrophage ACAT in cell culture using murine IC-21 macrophages (MAI) at 0.1 uM; not active; format: functional
Oryctolagus cuniculus [7] = assay: Compound was tested for percent change in total serum cholesterol relative to progression control in an injured cholesterol-fed rabbit (ICFR) model at a dose of 5 mg/kg; format: functional
Oryctolagus cuniculus [8] = assay: Anti-atherosclerosis activity was determined by measuring the thoracic aortic lesion coverage in an injured cholesterol-fed rabbit (ICFR) model at a dose of 25 mg/kg; format: functional, Aorta
Oryctolagus cuniculus [9] = assay: Anti-atherosclerosis activity was determined by measuring the thoracic aortic lesion coverage in an injured cholesterol-fed rabbit (ICFR) model at a dose of 5 mg/kg; format: functional, Aorta
Oryctolagus cuniculus [10] = assay: Compound was tested for percent change in total serum cholesterol relative to progression control in an injured cholesterol-fed rabbit (ICFR) model at a dose of 25 mg/kg; format: functional
Oryctolagus cuniculus [11] = assay: Compound was tested for percent change in plasma triglycerides relative to progression control in an injured cholesterol-fed rabbit (ICFR) model at a dose of 25 mg/kg(p<0.10); format: functional
Oryctolagus cuniculus [12] = assay: Compound was tested for percent change in plasma triglycerides relative to progression control in an injured cholesterol-fed rabbit (ICFR) model at a dose of 5 mg/kg; format: functional
Oryctolagus cuniculus [13] = assay: Compound was tested for systemic bioactivity in plasma, drawn four hours post dose from cholesterol -fed rabbit, with rat liver microsomes (ABIO) at a dose of 25 mg/kg; format: functional; settings: 4 h
Oryctolagus cuniculus [14] = assay: Compound was tested for systemic bioactivity in plasma, drawn four hours post dose from cholesterol -fed rabbit, with rat liver microsomes (ABIO) at a dose of 5 mg/kg; format: functional; settings: 4 h
Oryctolagus cuniculus [15] = assay: Compound was tested for percent change in plasma triglycerides relative to progression control in an injured cholesterol-fed rabbit (ICFR) model at a dose of 25 mg/kg; format: functional
Oryctolagus cuniculus [16] = assay: Anti-atherosclerosis activity was determined by measuring the thoracic aortic lesion coverage in an injured cholesterol-fed rabbit (ICFR) at a dose of 25 mg/kg; format: functional, Aorta

IC50 [1]: 0.45 µM
Structure (SMILES): CCCCCn1nnc(N(C(=O)Nc2c(OC)cc(OC)cc2OC)c2ccccc2)n1
Delta TC (Rattus norvegicus): -43%

IC50 [2]: 0.071 µM
Structure (SMILES): CCCCCCCCCCCCCCn1nnc(N(C(=O)Nc2c(OC)cc(OC)cc2OC)c2ccccc2)n1
Delta TC (Rattus norvegicus): -22%

IC50 [2]: 0.035 µM
Structure (SMILES): CCCCCCCCCCCCn1nnc(N(Cc2ccccc2)C(=O)Nc2c(OC)cc(OC)cc2OC)n1

IC50 [1]: 0.061 µM | IC50 [3]: 0.89 µM
Structure (SMILES): CCCCCCCCCCCCn1nnc(N(C(=O)Nc2c(OC)cc(OC)cc2OC)c2ccccc2)n1
inhibition in vivo at 22 mg/kg (Oryctolagus cuniculus [4]): 58% | Delta TC (Rattus norvegicus): 74%

Further lines, the compound ahead of its results:

Structure (SMILES): COc1cc(OC)c(NC(=O)N(c2ccccc2)c2nnn(CCCCCCCCCC(C)C)n2)c(OC)c1
IC50 [2]: 0.04 µM

Structure (SMILES): CCCCCCCCCCCCn1nnc(N(CCCCCCC)C(=O)Nc2c(OC)cc(OC)cc2OC)n1
IC50 [2]: 0.29 µM | Delta TC (Rattus norvegicus): -20%

Structure (SMILES): CC(C)c1cccc(C(C)C)c1NC(=O)N(c1ccccc1)c1nnn(CCCCCCCCOC2CCCCO2)n1 (stereo not drawn)
IC50 [2]: 0.016 µM | Delta TC (Rattus norvegicus): 42%

Structure (SMILES): COc1cc(OC)c(NC(=O)N(c2ccccc2)c2nnn(CCCCCCCCOC3CCCCO3)n2)c(OC)c1 (stereo not drawn)
IC50 [2]: 0.041 µM | Delta TC (Rattus norvegicus): -50%

Structure (SMILES): CCCCCCCCCCCCn1nnc(N(C(=O)Nc2c(C(C)C)cccc2C(C)C)C2CCCCC2)n1
IC50 [2]: 0.031 µM | IC50 [3]: 3.1 µM | inhibition in vivo at 24 mg/kg (Oryctolagus cuniculus [5]): 77% | Delta TC (Rattus norvegicus): 10%

Structure (SMILES): CCCCCCCCCCCCn1nnc(N(C(=O)Nc2c(OC)cc(OC)cc2OC)C2CCCCC2)n1
IC50 [1]: 0.057 µM | IC50 [6]: Not Active | Delta TC (Oryctolagus cuniculus [7]): 22% | Lesion coverage (Oryctolagus cuniculus [8]): 44% | Lesion coverage (Oryctolagus cuniculus [9]): 49% | Delta TC (Oryctolagus cuniculus [10]): 21% | Delta TG (Oryctolagus cuniculus [11]): 68% | Delta TG (Oryctolagus cuniculus [12]): 4% | inhibition in vivo at 25 mg/kg (Oryctolagus cuniculus [13]): 58% | inhibition in vivo at 5 mg/kg (Oryctolagus cuniculus [14]): 0% | Delta TC (Rattus norvegicus): 67%

Structure (SMILES): CCCCCCCCCCCCn1nnc(N(C(=O)Nc2c(C(C)C)cccc2C(C)C)c2ccccc2)n1
IC50 [3]: 0.24 µM | inhibition in vivo at 22 mg/kg (Oryctolagus cuniculus [4]): 79% | Delta TC (Rattus norvegicus): 52%

Structure (SMILES): CCCCCCCCCCC(C)(C)C(=O)Nc1c(OC)cc(OC)cc1OC [CL-976]
Delta TG (Oryctolagus cuniculus [15]): -7% | Lesion coverage (Oryctolagus cuniculus [16]): 39% | Delta TC (Oryctolagus cuniculus [10]): -24% | inhibition in vivo at 25 mg/kg (Oryctolagus cuniculus [13]): 73%
